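The compound was tested at five concentrations on cells cultured in 96-well plates, with a 48-hour exposure period. GI50 marks 50% less growth. TGI: concentration producing complete growth inhibition.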
Legend:
Assay in all cases: NCI-60 cell line screen, 48 h
KM12 colon = test system: KM12 colon
HT29 colon = test system: HT29 colon
HS 578T breast = test system: HS 578T breast
NCI-H23 lung = test system: NCI-H23 lung
T-47D breast = test system: T-47D breast
SNB-75 CNS = test system: SNB-75 CNS
MALME-3M melanoma = test system: MALME-3M melanoma
SN12C renal = test system: SN12C renal
SK-MEL-5 melanoma = test system: SK-MEL-5 melanoma
BT-549 breast = test system: BT-549 breast

SMILES | GI50 (KM12 colon) | TGI (KM12 colon) | GI50 (HT29 colon) | TGI (HT29 colon) | GI50 (HS 578T breast) | TGI (HS 578T breast) | GI50 (NCI-H23 lung) | TGI (NCI-H23 lung) | GI50 (T-47D breast) | TGI (T-47D breast) | GI50 (SNB-75 CNS) | TGI (SNB-75 CNS) | GI50 (MALME-3M melanoma) | TGI (MALME-3M melanoma) | GI50 (SN12C renal) | TGI (SN12C renal) | GI50 (SK-MEL-5 melanoma) | TGI (SK-MEL-5 melanoma) | GI50 (BT-549 breast) | TGI (BT-549 breast)
O=S(=O)(NC1=NCCN1C(=S)SN1CCn2c1nsc2=S)c1ccc(Oc2ccccc2)cc1 | 39.7 µM | > 100 µM | 54.7 µM | > 100 µM | 27.5 µM | > 100 µM | 43 µM | > 100 µM | 81.3 µM | > 100 µM | 39.5 µM | > 100 µM | 26.2 µM | > 100 µM | 59.8 µM | > 100 µM | 32.3 µM | > 100 µM | – | –
Cc1ccc(N)cc1[As]=[As]c1cc(N)ccc1C (stereo not given) | 1.95 µM | 3.81 µM | – | – | 2.81 µM | > 100 µM | 1.7 µM | 3.58 µM | – | – | 1.27 µM | 2.59 µM | 0.679 µM | 2.03 µM | 1.4 µM | 2.88 µM | 1.51 µM | 2.91 µM | 1.46 µM | 2.8 µM
CC(=O)[CH-]C(=O)c1ccccc1.CC(=O)[CH-]C(=O)c1ccccc1.Cl.[O-]c1ccnc2ccccc12.[O-]c1ccnc2ccccc12.[Ti+4] | > 100 µM | > 100 µM | > 100 µM | > 100 µM | – | – | > 100 µM | > 100 µM | – | – | > 100 µM | > 100 µM | > 100 µM | > 100 µM | > 100 µM | > 100 µM | > 100 µM | > 100 µM | – | –
O=C(NC1CC1)c1c(O)[nH]c(=S)[nH]c1=O | – | > 100 µM | – | > 100 µM | – | – | – | > 100 µM | – | – | – | > 100 µM | – | > 100 µM | – | > 100 µM | – | > 100 µM | – | –
Cc1ccccc1NC(=O)/C(=N\NC(N)=S)C(C#N)c1ccccc1 (stereo not given) | – | > 100 µM | – | > 100 µM | – | – | – | > 100 µM | – | – | – | > 100 µM | – | > 100 µM | – | > 100 µM | – | > 100 µM | – | –
COC(=O)C1C(C(=O)O)C2(c3ccccc3)C(=O)C1(c1ccccc1)C(c1ccccc1)=C2c1ccccc1 (stereo not given) | 16 µM | 38 µM | – | – | 23.4 µM | 58 µM | 16.5 µM | 31.5 µM | – | – | – | – | 26.8 µM | 59.3 µM | 18 µM | 38.9 µM | 12.9 µM | 27.6 µM | 18 µM | 37.6 µM
CCc1nc(C)cn1C(=O)OCc1nc2nc(Cl)nc(N3CCOCC3)c2[nH]1 | 1.56 µM | 3.29 µM | 1 µM | 4.04 µM | 1.74 µM | 4.89 µM | 1.55 µM | 3.35 µM | – | – | 0.579 µM | 2.06 µM | 1.56 µM | 2.95 µM | 1.35 µM | 2.74 µM | 1.64 µM | 3.01 µM | 1.55 µM | 4.26 µM
Cc1cccc(C)c1NC(=O)CCC(=O)NC(N)=NC#N | – | > 100 µM | – | > 100 µM | – | – | – | > 100 µM | – | – | – | > 100 µM | – | > 100 µM | – | > 100 µM | – | > 100 µM | – | –
COc1ccc2c(c1)C(=Nc1ccc(F)c(Cl)c1)c1c-2c(Nc2ccc(F)c(Cl)c2)nc2ccccc12 | > 100 µM | > 100 µM | > 100 µM | > 100 µM | 35.3 µM | 98.5 µM | 19.9 µM | 58 µM | > 100 µM | > 100 µM | – | – | > 100 µM | > 100 µM | 33.8 µM | > 67 µM | > 100 µM | > 100 µM | 23.4 µM | > 74.4 µM
Cc1ccc(S(=O)(=O)OCOS(=O)(=O)c2ccc(C)cc2)cc1 | – | > 100 µM | – | – | – | – | – | > 100 µM | – | – | – | – | – | > 100 µM | – | > 100 µM | – | > 100 µM | – | –
Cc1ccc2c(c1)-c1c3c(nn1C)-c1ccccc1SC3O2 (stereo not given) | – | > 100 µM | – | > 100 µM | – | – | – | > 100 µM | – | – | – | > 100 µM | – | > 100 µM | – | – | – | – | – | –
Cc1cccc(NC(=O)C(=O)C(C2OC(=O)c3ccccc32)[N+](=O)[O-])c1C (stereo not given) | – | 26.9 µM | – | 35.1 µM | – | – | – | 18.9 µM | – | – | – | 19.7 µM | – | 10.5 µM | – | 18.9 µM | – | 19.2 µM | – | –
COc1ccc(Oc2nc3cc(N)cc(N)c3nc2-c2ccccc2)cc1 | 37.4 µM | > 100 µM | 39.9 µM | > 100 µM | 24.3 µM | > 100 µM | 25.2 µM | > 100 µM | 15.3 µM | 97.3 µM | – | – | – | > 100 µM | 50.1 µM | > 100 µM | 44.6 µM | > 100 µM | 32.1 µM | > 100 µM
CCC12C=CCN(CCc3c([nH]c4ccccc34)/C=C\1)C2 (stereo not given) | – | > 100 µM | – | > 100 µM | – | – | – | > 100 µM | – | – | – | > 100 µM | – | > 100 µM | – | > 100 µM | – | > 100 µM | – | –
O=S1(=O)c2ccccc2N(c2ccccc2)c2nnnn21 | – | > 100 µM | – | 67.8 µM | – | > 100 µM | – | 59.6 µM | – | > 100 µM | – | – | – | – | – | 39.1 µM | – | > 100 µM | – | 70.5 µM
COc1cc(OCc2ccccc2)c2c(CCC(=O)O)cc(=O)oc2c1 (tested in a mixture with another compound) | – | > 100 µM | – | > 100 µM | – | > 100 µM | – | > 100 µM | – | – | – | > 100 µM | – | > 100 µM | – | – | – | > 100 µM | – | > 100 µM
Nc1cccc2c1-c1c(cccc1[N+](=O)[O-])C2=O | – | > 100 µM | – | > 100 µM | – | – | – | > 100 µM | – | – | – | > 100 µM | – | > 100 µM | – | > 100 µM | – | > 100 µM | – | –
C[P+]1(Cc2ccccc2)CCCC1 | – | > 100 µM | – | > 100 µM | – | – | – | > 100 µM | – | – | – | > 100 µM | – | > 100 µM | – | > 100 µM | – | > 100 µM | – | –
O=C(O)c1ccc2c(c1)C(=O)N(c1ccc(S(=O)(=O)c3ccc(N4C(=O)c5ccc(C(=O)O)cc5C4=O)cc3)cc1)C2=O | – | > 100 µM | – | > 100 µM | – | – | – | > 100 µM | – | – | – | > 100 µM | – | > 100 µM | – | > 100 µM | – | > 100 µM | – | –
COc1cc(-c2nn(-c3ccc(NC(=O)Nc4cc(C(F)(F)F)cc(C(F)(F)F)c4)cc3)cc2-c2ccncc2)ccc1Cl | 1.34 µM | 3.09 µM | 3.31 µM | 12.3 µM | 2.94 µM | > 100 µM | 2.01 µM | 5.56 µM | 1.96 µM | 7.77 µM | 1.99 µM | 5.35 µM | – | – | 1.71 µM | 4.21 µM | 1.53 µM | 2.98 µM | 2.61 µM | 6.03 µM
